Assay type in all cases: functional, cell-based
Assay [1] has as its system HeLa. Put plainly: Antiproliferative activity against human HeLa cells after 48 hrs by MTT assay. A general note: Tetrazolium dyes change colour on reduction, which living cells bring about.
The test system of assay [2] is HepG2. Put plainly: Antiproliferative activity against human HepG2 cells after 48 hrs by MTT assay. Conditions: HepG2, 48 h.
In assay [3] the test system is A549. Briefly: Antiproliferative activity against human A549 cells after 48 hrs by MTT assay. Conditions: A549, 48 h.
The test system of assay [4] is NCI-H460. Briefly: Antiproliferative activity against human NCI-H460 cells after 48 by hrs MTT assay.
In assay [5] the test system is HL-60. Briefly: Antiproliferative activity against human HL60 cells after 48 hrs by MTT assay. As to conditions: HL-60, 48 h.

The results in this text go back to ChEMBL document CHEMBL4184120, “Target ROS to induce apoptosis and cell cycle arrest by 5,7-dimethoxy-1,4-naphthoquinone derivative” (Bioorg Med Chem Lett, 2018).

By IC50 is commonly meant the concentration at which inhibition is half-maximal. Regarding `COc1cc(OC)c2c(c1)C(=O)C(O)=C(CCc1ccc(Br)cc1)C2=O`, the concentration for half-maximal inhibition (IC50) in assay [1] is more than 100 µM; in assay [2], 73.2 µM; in assay [3], more than 100 µM; in assay [4], more than 100 µM; in assay [5] it was more than 100 µM.
`CCCC1=C(O)C(=O)c2cc(OC)cc(OC)c2C1=O`: the IC50 in assay [1] was more than 100 µM; in assay [2] it was more than 100 µM; in assay [3] it was 78.7 µM; in assay [4], more than 100 µM; in assay [5], more than 100 µM.
In the case of `COC1=C(CCC2CCCCC2)C(=O)c2c(OC)cc(OC)cc2C1=O`, the IC50 in assay [1] is 70.2 µM; in assay [2] it was 37.4 µM; in assay [3] it was more than 100 µM; in assay [4], 43.1 µM; in assay [5], 55.9 µM.
Regarding `COC1=C(CCc2ccc(OC)cc2)C(=O)c2c(OC)cc(OC)cc2C1=O`, the IC50 is 35 µM in assay [1]; 47.5 µM in assay [2]; more than 100 µM in assay [3]; 37.1 µM in assay [4]; 52 µM in assay [5].
`O=c1[nH]cc(F)c(=O)[nH]1` [FLUOROURACIL]: the IC50 in assay [1] worked out at 30.2 µM; in assay [2], 36.6 µM; in assay [5], 67.2 µM.
Turning to `COc1cc(OC)c2c(c1)C(=O)C(O)=CC2=O`, the IC50 in assay [1], in assay [2], in assay [3], in assay [4] and in assay [5] was more than 100 µM throughout.
`CCCCCCCCCCCCC1=C(O)C(=O)c2cc(OC)cc(OC)c2C1=O`: the half-inhibitory concentration (IC50) was more than 100 µM in assay [1]; more than 100 µM in assay [2]; more than 100 µM in assay [3]; more than 100 µM in assay [4]; 86.7 µM in assay [5].
As for `COc1ccc(CCC2=C(O)C(=O)c3cc(OC)cc(OC)c3C2=O)cc1`, the IC50 in assay [1] came out at 72.8 µM; in assay [2], 60.7 µM; in assay [3], 82.4 µM; in assay [4] it was 97.5 µM; in assay [5], 93.1 µM.
The corresponding values for `CCC1=C(O)C(=O)c2cc(OC)cc(OC)c2C1=O` are 96.5 µM, more than 100 µM, more than 100 µM, more than 100 µM and more than 100 µM.
For `COc1cc(OC)c2c(c1)C(=O)C(O)=C(C)C2=O`, the IC50 is 90.2 µM in assay [1]; more than 100 µM in assay [2]; more than 100 µM in assay [3]; more than 100 µM in assay [4]; more than 100 µM in assay [5].
In the case of `CCCCCCCCCCC1=C(O)C(=O)c2cc(OC)cc(OC)c2C1=O`, the IC50 in assay [1] is more than 100 µM; in assay [2], more than 100 µM; in assay [3], more than 100 µM; in assay [4], more than 100 µM; in assay [5] it was 95.5 µM.
`CCCCCCC1=C(O)C(=O)c2cc(OC)cc(OC)c2C1=O`: the IC50 in assay [1] was more than 100 µM; in assay [2], 90.4 µM; in assay [3] it was more than 100 µM; in assay [4] it was more than 100 µM; in assay [5] it was more than 100 µM.
For `CCCCCCCCC1=C(O)C(=O)c2cc(OC)cc(OC)c2C1=O`, the IC50 in assay [1], in assay [2], in assay [3], in assay [4] and in assay [5] was more than 100 µM throughout.
As for `COc1cc(OC)c2c(c1)C(=O)C(O)=C(CCc1ccccc1)C2=O`, the IC50 was more than 100 µM in assay [1]; 95.7 µM in assay [2]; more than 100 µM in assay [3]; more than 100 µM in assay [4]; 96.1 µM in assay [5].
For `COc1cc(OC)c2c(c1)C(=O)C(O)=C(CCc1ccc(N(CCCl)CCCl)cc1)C2=O`, the IC50 is more than 100 µM in assay [1]; 81.4 µM in assay [2]; more than 100 µM in assay [3]; more than 100 µM in assay [4]; 26.1 µM in assay [5].
On to `COc1cc(OC)c2c(c1)C(=O)C(O)=C(CCC1CCCCC1)C2=O`, for which the IC50 came to 79.4 µM in assay [1]; 49.9 µM in assay [2]; 78.5 µM in assay [3]; 86.2 µM in assay [4]; 95.8 µM in assay [5].
